Results: EP0831835B1, “TREATING ANOREXIA” (ELI LILLY AND COMPANY, priority 1995, dated 1996)

Tests used:
human subjects = assay: double blind multicenter clinical trial versus haloperidol; format: in vivo; settings: 1,996 human subjects, 5-20 mg/day, 6 weeks
Description: Another double blind multicenter clinical trial was completed using 1,996 human subjects. […] The study continued for 6 weeks, with possible extensions.

[1] = system: muscarinic cholinergic receptor; settings: results of pharmacological studies
rodents = assay: animal studies in rodents (food intake / weight); format: in vivo, Male Sprague Dawley CD rats; settings: many such animals
Description: Male Sprague Dawley CD rats (Charles River, Wilmington, Mass.) are individually housed in cages with ad libitum access to Animal Chow and tap water. Temperature is maintained at approximately 21° C. Rats are adapted to vivarium conditions for at least a week before tests begin.
At the start of the experiments, the rats are weighed. […] Tests are conducted every 3-4 days. Food intake (± 0.1 g) is recorded hourly for the 5 h after intubation and after 24 h.

5-HT1C receptor = biological target: T1, 5-HT1C receptor (Homo sapiens, UniProt P28335); assay: pharmacological studies, activity at 5-HT1C receptor
T1 sequence (P28335 33-458): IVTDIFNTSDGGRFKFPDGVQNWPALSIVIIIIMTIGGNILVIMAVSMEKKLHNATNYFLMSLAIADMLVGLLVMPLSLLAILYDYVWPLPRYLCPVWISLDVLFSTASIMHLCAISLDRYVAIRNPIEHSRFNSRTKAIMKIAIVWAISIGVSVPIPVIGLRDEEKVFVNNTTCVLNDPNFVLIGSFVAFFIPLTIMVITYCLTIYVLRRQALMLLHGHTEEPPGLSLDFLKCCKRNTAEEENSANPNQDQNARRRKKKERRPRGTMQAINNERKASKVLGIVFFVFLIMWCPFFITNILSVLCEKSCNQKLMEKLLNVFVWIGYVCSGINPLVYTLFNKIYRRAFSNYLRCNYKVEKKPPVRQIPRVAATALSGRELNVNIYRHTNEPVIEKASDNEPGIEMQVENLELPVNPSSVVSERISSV

human patients = assay: double-blind multicenter clinical trial versus placebo; format: in vivo; settings: human patients randomized to compound or placebo
dogs = assay: animal studies in dogs (weight); format: in vivo
[2] = detection of radiolabelled compound in saliva; format: in vivo
Description: For example, in the treatment of adult humans, dosages of from about 0.25 to 50 mg, preferably from 1 to 30 mg, and most preferably 1 to 20 mg per day may be used. A once a day dosage is normally sufficient, although divided doses may be administered. For treatment of cognitive dysfunction, a dose range of from 1 to 30 mg, preferably 1 to 20 mg per day is suitable.

Cc1cc2c(s1)Nc1ccccc1N=C2N1CCN(C)CC1 [2-methyl-4-(4-methyl-1-piperazinyl)-10H-thieno[2,3-b][1,5]benzodiazepine]
appetite (human subjects): increase in appetite | weight gain (human subjects): statistically significant dose dependent weight gain | muscarinic cholinergic receptor activity [1]: has muscarinic cholinergic receptor activity | weight change (rodents): lost weight | activity at the 5-HT1C receptor (5-HT1C receptor): active | usefulness for the treatment of anorexia (human patients): can be useful for the treatment of anorexia | effectiveness for treatment of clinically significant decrease in appetite (dogs): would not be effective | weight change (dogs; many such animals): lost weight | detection in saliva [2]: can be detected in the saliva
